Measurements reported in patent US9113629B2, “4-amino-6-(4-substituted-phenyl)-picolinates and 6-amino-2-(4-substituted-phenyl)-pyrimidine-4-carboxylates and their use as herbicides” (DOW AGROSCIENCES LLC, priority 2013, dated 2015).
Like-named read-outs stand apart in the source and are kept apart here.

Assays:
[1] = system: Key Broadleaf Weed and Crop Species; experiment: Post-emergent Test II herbicidal activity (Table 5); format: in vivo; conditions: post-emergence, 336 h, post-emergent, 14 days after application; for pest or weed control at 70 g/ha: 70 g ai/ha; for pest or weed control at 140 g/ha: 140 g ai/ha
Procedure, shortened: (§1)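 Scoring: visual, 0–100% injury at 14 d versus untreated. Treatment: overhead track spray, 187 L/ha, onto plants at the first–second true leaf stage. Growth: greenhouse, ~15 h light, 23–29 °C day, 22–28 °C night.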

[2] = system: Key Grass and Sedge Weeds as well as Grass Crops; experiment: Post-emergent Test II herbicidal activity (Table 6); format: in vivo; conditions: post-emergence, 336 h; for pest or weed control at 70 g/ha: application rate 70 g ai/ha; for pest or weed control at 140 g/ha: application rate 140 g ai/ha
Procedure, shortened: as §1

[3] = ABUTH: velvetleaf (Abutilon theophrasti), read-out: Visual Growth Reduction (%) 14 Days After Application ABUTH
[4] = AMARE: redroot pigweed (Amaranthus retroflexus), read-out: Visual Growth Reduction (%) 14 Days After Application AMARE
[5] = BRSNN: oilseed-rape, canola (Brassica napus), read-out: Visual Growth Reduction (%) 14 Days After Application BRSNN
[6] = CHEAL: lambsquarters (Chenopodium album), read-out: Visual Growth Reduction (%) 14 Days After Application CHEAL
[7] = EPHHL: wild poinsettia (Euphorbia heterophylla), read-out: Visual Growth Reduction (%) 14 Days After Application EPHHL
[8] = HELAN: sunflower (Helianthus annuus), read-out: Visual Growth Reduction (%) 14 Days After Application HELAN
[9] = VIOTR: wild pansy (Viola tricolor), read-out: Visual Growth Reduction (%) 14 Days After Application VIOTR
[10] = CYPES: yellow nutsedge (Cyperus esculentus), read-out: Visual Growth Reduction (%) 14 Days After Application, CYPES
[11] = DIGSA: crabgrass (Digitaria sanguinalis), read-out: Visual Growth Reduction (%) 14 Days After Application, DIGSA
[12] = ECHCG: barnyardgrass (Echinochloa crus-galli), read-out: Visual Growth Reduction (%) 14 Days After Application, ECHCG
[13] = ORYSA: rice (Oryza sativa), read-out: Visual Growth Reduction (%) 14 Days After Application, ORYSA
[14] = SETFA: giant foxtail (Setaria faberi), read-out: Visual Growth Reduction (%) 14 Days After Application, SETFA
[15] = SORVU: grain sorghum (Sorghum vulgare), read-out: Visual Growth Reduction (%) 14 Days After Application, SORVU
[16] = TRZSS (wheat, Triticum aestivum), read-out: Visual Growth Reduction (%) 14 Days After Application, TRZSS
[17] = ZEAMX: maize, corn (Zea mays), read-out: Visual Growth Reduction (%) 14 Days After Application, ZEAMX

Question: Which pest or weed control at 70 g/ha [1, 3] does the source give for C=Cc1c(N)nc(-c2ccc(C(F)(F)F)c(F)c2)nc1C(=O)O [Compound 32, 6-Amino-2-(3-fluoro-4-(trifluoromethyl)phenyl)-5-vinylpyrimidine-4-carboxylic acid] here?
Answer: Its pest or weed control at 70 g/ha is 60 to 74%.

Question: And the pest or weed control at 140 g/ha [1, 3]?
Answer: Its pest or weed control at 140 g/ha is 60 to 74%.

Question: What about the pest or weed control at 70 g/ha [1, 4] of the same compound?
Answer: Its pest or weed control at 70 g/ha is 75 to 84%.

Question: What about the pest or weed control at 140 g/ha [1, 4] of the same compound?
Answer: The pest or weed control at 140 g/ha was 95 to 100%.

Question: What about the pest or weed control at 70 g/ha [1, 5] of the same compound?
Answer: The pest or weed control at 70 g/ha was 0 to 29%.

Question: What about the pest or weed control at 140 g/ha [1, 5] of the same compound?
Answer: The pest or weed control at 140 g/ha was 45 to 59%.

Question: And the pest or weed control at 70 g/ha [1, 6]?
Answer: The pest or weed control at 70 g/ha was 95 to 100%.

Question: And the pest or weed control at 140 g/ha [1, 6]?
Answer: The pest or weed control at 140 g/ha was 95 to 100%.

Question: What about the pest or weed control at 70 g/ha [1, 7] of the same compound?
Answer: The pest or weed control at 70 g/ha was 95 to 100%.

Question: And the pest or weed control at 140 g/ha [1, 7]?
Answer: The pest or weed control at 140 g/ha was 95 to 100%.

Question: What about the pest or weed control at 70 g/ha [1, 8] of the same compound?
Answer: Its pest or weed control at 70 g/ha is 85 to 94%.

Question: And the pest or weed control at 140 g/ha [1, 8]?
Answer: Its pest or weed control at 140 g/ha is 85 to 94%.

Question: What about the pest or weed control at 70 g/ha [1, 9] of the same compound?
Answer: Its pest or weed control at 70 g/ha is 0 to 29%.

Question: And the pest or weed control at 140 g/ha [1, 9]?
Answer: The pest or weed control at 140 g/ha was 0 to 29%.

Question: And the pest or weed control at 70 g/ha [2, 10]?
Answer: The pest or weed control at 70 g/ha was 0 to 29%.

Question: And the pest or weed control at 140 g/ha [2, 10]?
Answer: Its pest or weed control at 140 g/ha is 45 to 59%.

Question: What about the pest or weed control at 70 g/ha [2, 11] of the same compound?
Answer: Its pest or weed control at 70 g/ha is 0 to 29%.

Question: And the pest or weed control at 140 g/ha [2, 11]?
Answer: The pest or weed control at 140 g/ha was 0 to 29%.

Question: What about the pest or weed control at 70 g/ha [2, 12] of the same compound?
Answer: Its pest or weed control at 70 g/ha is 75 to 84%.

Question: What about the pest or weed control at 140 g/ha [2, 12] of the same compound?
Answer: The pest or weed control at 140 g/ha was 75 to 84%.

Question: And the pest or weed control at 70 g/ha [2, 13]?
Answer: The pest or weed control at 70 g/ha was 0 to 29%.

Question: What about the pest or weed control at 140 g/ha [2, 13] of the same compound?
Answer: The pest or weed control at 140 g/ha was 0 to 29%.

Question: What about the pest or weed control at 70 g/ha [2, 14] of the same compound?
Answer: The pest or weed control at 70 g/ha was 0 to 29%.

Question: And the pest or weed control at 140 g/ha [2, 14]?
Answer: Its pest or weed control at 140 g/ha is 0 to 29%.

Question: What about the pest or weed control at 70 g/ha [2, 15] of the same compound?
Answer: The pest or weed control at 70 g/ha was 60 to 74%.

Question: What about the pest or weed control at 140 g/ha [2, 15] of the same compound?
Answer: The pest or weed control at 140 g/ha was 60 to 74%.

Question: What about the pest or weed control at 70 g/ha [2, 16] of the same compound?
Answer: The pest or weed control at 70 g/ha was 0 to 29%.

Question: And the pest or weed control at 140 g/ha [2, 16]?
Answer: Its pest or weed control at 140 g/ha is 0 to 29%.

Question: And the pest or weed control at 70 g/ha [2, 17]?
Answer: The pest or weed control at 70 g/ha was 45 to 59%.

Question: And the pest or weed control at 140 g/ha [2, 17]?
Answer: Its pest or weed control at 140 g/ha is 60 to 74%.

Question: What about the melting point of the same compound?
Answer: The melting point was 168 to 171 °C.
